{"source": "patent US10323022B2", "about": "“Pyrrolidinyl urea, pyrrolidinyl thiourea and pyrrolidinyl guanidine compounds as TrkA kinase inhibitors” (Array BioPharma Inc., priority 2011, dated 2019)", "target": "TrkA (Homo sapiens (Human), UniProt P04629)", "sequence (P04629 33-796)": "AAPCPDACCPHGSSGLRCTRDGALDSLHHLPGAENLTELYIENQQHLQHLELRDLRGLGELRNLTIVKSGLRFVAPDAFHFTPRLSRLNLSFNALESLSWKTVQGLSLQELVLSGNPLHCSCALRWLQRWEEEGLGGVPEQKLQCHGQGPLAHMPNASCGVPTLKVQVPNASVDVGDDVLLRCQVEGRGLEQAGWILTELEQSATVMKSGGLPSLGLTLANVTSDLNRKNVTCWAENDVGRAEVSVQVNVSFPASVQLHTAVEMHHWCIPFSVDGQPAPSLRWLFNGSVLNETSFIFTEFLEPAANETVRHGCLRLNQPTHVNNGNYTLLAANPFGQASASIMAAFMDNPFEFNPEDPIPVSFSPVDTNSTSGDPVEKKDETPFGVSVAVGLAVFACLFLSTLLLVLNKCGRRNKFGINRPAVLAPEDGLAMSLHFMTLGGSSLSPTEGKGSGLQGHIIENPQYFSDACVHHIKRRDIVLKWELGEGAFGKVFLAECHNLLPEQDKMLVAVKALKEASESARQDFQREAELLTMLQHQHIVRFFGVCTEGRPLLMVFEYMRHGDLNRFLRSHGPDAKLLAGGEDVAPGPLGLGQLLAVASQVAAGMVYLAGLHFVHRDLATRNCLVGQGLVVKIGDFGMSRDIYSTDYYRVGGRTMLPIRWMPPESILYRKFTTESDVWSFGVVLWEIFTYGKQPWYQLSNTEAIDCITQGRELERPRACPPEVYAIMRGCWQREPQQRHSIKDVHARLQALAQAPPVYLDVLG", "assay": "TrkA Omnia Assay", "format": "biochemical", "details": "averaged IC50; 20 nM enzyme, 500 μM ATP, 10 μM peptide substrate", "summary_of_the_method": "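Recombinant TrkA (20 nM) preincubated 10 min at ambient temperature with compound, then Omnia Tyr Peptide #4 (10 μM) and ATP (500 μM) added in 25 mM MOPS pH 7.5, 5 mM MgCl2, 0.005% Triton X-100. Fluorescence (ex 360/em 485 nm) followed continuously for 70 min; IC50 from initial rates by 4- or 5-parameter logistic fit.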", "data": [{"smiles": "COCCN1C[C@@H](NC(=O)Nc2c(Cl)c(OCC(C)(C)O)nn2-c2ccccc2)[C@H](c2ccc(F)c(F)c2)C1", "note": "[Example 359, 1-(4-chloro-3-(2-hydroxy-2-methylpropoxy)-1-phenyl-1H-pyrazol-5-yl)-3-((3S,4R)-4-(3,4-difluorophenyl)-1-(2-methoxyethyl)pyrrolidin-3-yl)urea]", "values": [{"measurement": "IC50", "result": "< 0.1", "unit": "µM"}]}, {"smiles": "CC[C@H](O)COc1nn(-c2ccccc2)c(NC(=O)N[C@@H]2CN(CCOC)C[C@H]2c2ccc(F)c(F)c2)c1C", "note": "[Example 360, 1-((3S,4R)-4-(3,4-difluorophenyl)-1-(2-methoxyethyl)pyrrolidin-3-yl)-3-(3-((S)-2-hydroxybutoxy)-4-methyl-1-phenyl-1H-pyrazol-5-yl)urea]", "values": [{"measurement": "IC50", "result": "< 0.1", "unit": "µM"}]}, {"smiles": "CCOC(=O)COc1nn(-c2ccccc2)c(NC(=O)N[C@@H]2CN(CCOC)C[C@H]2c2ccc(F)c(F)c2)c1C", "note": "[Example 361, ethyl 2-((5-(3-((3S,4R)-4-(3,4-difluorophenyl)-1-(2-methoxyethyl)pyrrolidin-3-yl)ureido)-4-methyl-1-phenyl-1H-pyrazol-3-yl)oxy)acetate]", "values": [{"measurement": "IC50", "result": "< 0.1", "unit": "µM"}]}, {"smiles": "COCCN1C[C@@H](NC(=O)Nc2c(C)c(OCC(C)(C)O)nn2-c2ccccc2)[C@H](c2ccc(F)cc2)C1", "note": "[Example 362, 1-((3S,4R)-4-(4-fluorophenyl)-1-(2-methoxyethyl)pyrrolidin-3-yl)-3-(3-(2-hydroxy-2-methylpropoxy)-4-methyl-1-phenyl-1H-pyrazol-5-yl)urea]", "values": [{"measurement": "IC50", "result": "< 0.1", "unit": "µM"}]}, {"smiles": "COCCN1C[C@@H](NC(=O)Nc2c(C)c(OC[C@@H](C)O)nn2-c2ccccc2)[C@H](c2ccc(F)cc2)C1", "note": "[Example 364, 1-((3S,4R)-4-(4-fluorophenyl)-1-(2-methoxyethyl)pyrrolidin-3-yl)-3-(3-((R)-2-hydroxypropoxy)-4-methyl-1-phenyl-1H-pyrazol-5-yl)urea]", "values": [{"measurement": "IC50", "result": "< 0.1", "unit": "µM"}]}, {"smiles": "COCCN1C[C@@H](NC(=O)Nc2c(C)c(OC[C@@H](C)O)nn2-c2ccccc2)[C@H](c2ccc(F)c(F)c2)C1", "note": "[Example 365, 1-((3S,4R)-4-(3,4-difluorophenyl)-1-(2-methoxyethyl)pyrrolidin-3-yl)-3-(3-((R)-2-hydroxypropoxy)-4-methyl-1-phenyl-1H-pyrazol-5-yl)urea]", "values": [{"measurement": "IC50", "result": "< 0.1", "unit": "µM"}]}, {"smiles": "COCCN1C[C@@H](NC(=O)Nc2c(C)c(OC[C@@H](C)O)nn2-c2ccccc2)[C@H](c2cc(F)cc(F)c2)C1", "note": "[Example 366, 1-((3S,4R)-4-(3,5-difluorophenyl)-1-(2-methoxyethyl)pyrrolidin-3-yl)-3-(3-((R)-2-hydroxypropoxy)-4-methyl-1-phenyl-1H-pyrazol-5-yl)urea]", "values": [{"measurement": "IC50", "result": "< 0.1", "unit": "µM"}]}, {"smiles": "COCCN1C[C@@H](NC(=O)Nc2c(C)c(OC[C@@H](O)C(F)(F)F)nn2-c2ccccc2)[C@H](c2cc(F)cc(F)c2)C1", "note": "[Example 367, 1-((3S,4R)-4-(3,5-difluorophenyl)-1-(2-methoxyethyl)pyrrolidin-3-yl)-3-(4-methyl-1-phenyl-3-((R)-3,3,3-trifluoro-2-hydroxypropoxy)-1H-pyrazol-5-yl)urea]", "values": [{"measurement": "IC50", "result": "< 0.1", "unit": "µM"}]}, {"smiles": "COCCN1C[C@@H](NC(=O)Nc2c(C)c(OC[C@H](C)O)nn2-c2ccccc2)[C@H](c2ccc(F)cc2)C1", "note": "[Example 368, 1-((3S,4R)-4-(4-fluorophenyl)-1-(2-methoxyethyl)pyrrolidin-3-yl)-3-(3-((S)-2-hydroxypropoxy)-4-methyl-1-phenyl-1H-pyrazol-5-yl)urea]", "values": [{"measurement": "IC50", "result": "< 0.1", "unit": "µM"}]}, {"smiles": "COCCN1C[C@@H](NC(=O)Nc2c(C)c(OC[C@H](O)C(F)(F)F)nn2-c2ccccc2)[C@H](c2cc(F)cc(F)c2)C1", "note": "[Example 369, 1-((3S,4R)-4-(3,5-difluorophenyl)-1-(2-methoxyethyl)pyrrolidin-3-yl)-3-(4-methyl-1-phenyl-3-((S)-3,3,3-trifluoro-2-hydroxypropoxy)-1H-pyrazol-5-yl)urea]", "values": [{"measurement": "IC50", "result": "< 0.1", "unit": "µM"}]}, {"smiles": "COCCN1C[C@@H](NC(=O)Nc2c(Cl)c(OCC(C)(C)O)nn2-c2ccccc2)[C@H](c2cc(F)cc(F)c2)C1", "note": "[Example 370, 1-(4-chloro-3-(2-hydroxy-2-methylpropoxy)-1-phenyl-1H-pyrazol-5-yl)-3-((3S,4R)-4-(3,5-difluorophenyl)-1-(2-methoxyethyl)pyrrolidin-3-yl)urea]", "values": [{"measurement": "IC50", "result": "< 0.1", "unit": "µM"}]}, {"smiles": "COCCN1C[C@@H](NC(=O)Nc2c(Cl)c(OCC(C)(C)O)nn2-c2ccccc2)[C@H](c2ccc(F)cc2)C1", "note": "[Example 371, 1-(4-chloro-3-(2-hydroxy-2-methylpropoxy)-1-phenyl-1H-pyrazol-5-yl)-3-((3S,4R)-4-(4-fluorophenyl)-1-(2-methoxyethyl)pyrrolidin-3-yl)urea]", "values": [{"measurement": "IC50", "result": "< 0.1", "unit": "µM"}]}, {"smiles": "COCCN1C[C@@H](NC(=O)Nc2c(Cl)c(OC[C@@H](C)O)nn2-c2ccccc2)[C@H](c2ccc(F)c(F)c2)C1", "note": "[Example 372, 1-(4-chloro-3-((R)-2-hydroxypropoxy)-1-phenyl-1H-pyrazol-5-yl)-3-((3S,4R)-4-(3,4-difluorophenyl)-1-(2-methoxyethyl)pyrrolidin-3-yl)urea]", "values": [{"measurement": "IC50", "result": "< 0.1", "unit": "µM"}]}, {"smiles": "COCCN1C[C@@H](NC(=O)Nc2c(Cl)c(OC[C@@H](C)O)nn2-c2ccccc2)[C@H](c2cc(F)cc(F)c2)C1", "note": "[Example 373, 1-(4-chloro-3-((R)-2-hydroxypropoxy)-1-phenyl-1H-pyrazol-5-yl)-3-((3S,4R)-4-(3,5-difluorophenyl)-1-(2-methoxyethyl)pyrrolidin-3-yl)urea]", "values": [{"measurement": "IC50", "result": "< 0.1", "unit": "µM"}]}, {"smiles": "COCCN1C[C@@H](NC(=O)Nc2c(Cl)c(OC[C@@H](C)O)nn2-c2ccccc2)[C@H](c2ccc(F)cc2)C1", "note": "[Example 374, 1-(4-chloro-3-((R)-2-hydroxypropoxy)-1-phenyl-1H-pyrazol-5-yl)-3-((3S,4R)-4-(4-fluorophenyl)-1-(2-methoxyethyl)pyrrolidin-3-yl)urea]", "values": [{"measurement": "IC50", "result": "< 0.1", "unit": "µM"}]}, {"smiles": "COCCN1C[C@@H](NC(=O)Nc2c(Br)c(OC[C@@H](C)O)nn2-c2ccccc2)[C@H](c2ccc(F)c(F)c2)C1", "note": "[Example 375, 1-(4-bromo-3-((R)-2-hydroxypropoxy)-1-phenyl-1H-pyrazol-5-yl)-3-((3S,4R)-4-(3,4-difluorophenyl)-1-(2-methoxyethyl)pyrrolidin-3-yl)urea]", "values": [{"measurement": "IC50", "result": "< 0.1", "unit": "µM"}]}, {"smiles": "COCCN1C[C@@H](NC(=O)Nc2c(Br)c(OC[C@@H](C)O)nn2-c2ccccc2)[C@H](c2cc(F)cc(F)c2)C1", "note": "[Example 376, 1-(4-bromo-3-((R)-2-hydroxypropoxy)-1-phenyl-1H-pyrazol-5-yl)-3-((3S,4R)-4-(3,5-difluorophenyl)-1-(2-methoxyethyl)pyrrolidin-3-yl)urea]", "values": [{"measurement": "IC50", "result": "< 0.1", "unit": "µM"}]}, {"smiles": "COCCN1C[C@@H](NC(=O)Nc2c(Br)c(OC[C@@H](C)O)nn2-c2ccccc2)[C@H](c2ccc(F)cc2)C1", "note": "[Example 377, 1-(4-bromo-3-((R)-2-hydroxypropoxy)-1-phenyl-1H-pyrazol-5-yl)-3-((3S,4R)-4-(4-fluorophenyl)-1-(2-methoxyethyl)pyrrolidin-3-yl)urea]", "values": [{"measurement": "IC50", "result": "< 0.1", "unit": "µM"}]}, {"smiles": "CC[C@@H](O)COc1nn(-c2ccccc2)c(NC(=O)N[C@@H]2CN(CCOC)C[C@H]2c2cc(F)cc(F)c2)c1C", "note": "[Example 378, 1-((3S,4R)-4-(3,5-difluorophenyl)-1-(2-methoxyethyl)pyrrolidin-3-yl)-3-(3-((R)-2-hydroxybutoxy)-4-methyl-1-phenyl-1H-pyrazol-5-yl)urea]", "values": [{"measurement": "IC50", "result": "< 0.1", "unit": "µM"}]}, {"smiles": "CC[C@@H](O)COc1nn(-c2ccccc2)c(NC(=O)N[C@@H]2CN(CCOC)C[C@H]2c2ccc(F)cc2)c1C", "note": "[Example 379, 1-((3S,4R)-4-(4-fluorophenyl)-1-(2-methoxyethyl)pyrrolidin-3-yl)-3-(3-((R)-2-hydroxybutoxy)-4-methyl-1-phenyl-1H-pyrazol-5-yl)urea]", "values": [{"measurement": "IC50", "result": "< 0.1", "unit": "µM"}]}]}
